According to US20070043024A1, “Azacyclic compounds as inhibitors of sensory neurone specific channels” (priority 2003, published 2007):
pIC50: −log10 of the molar value.

What follows are compounds tested against T1, human Nav1.8 (hNav1.8) ion channel (Homo sapiens, UniProt Q9Y5Y9) (assay: Inhibition of human Nav1.8 stably expressed in SH-SY-5Y cells (membrane potential dye fluorescence assay)). Settings: not given.
T1 construct: expressed in transfected cells
T1 sequence (Q9Y5Y9 whole entry): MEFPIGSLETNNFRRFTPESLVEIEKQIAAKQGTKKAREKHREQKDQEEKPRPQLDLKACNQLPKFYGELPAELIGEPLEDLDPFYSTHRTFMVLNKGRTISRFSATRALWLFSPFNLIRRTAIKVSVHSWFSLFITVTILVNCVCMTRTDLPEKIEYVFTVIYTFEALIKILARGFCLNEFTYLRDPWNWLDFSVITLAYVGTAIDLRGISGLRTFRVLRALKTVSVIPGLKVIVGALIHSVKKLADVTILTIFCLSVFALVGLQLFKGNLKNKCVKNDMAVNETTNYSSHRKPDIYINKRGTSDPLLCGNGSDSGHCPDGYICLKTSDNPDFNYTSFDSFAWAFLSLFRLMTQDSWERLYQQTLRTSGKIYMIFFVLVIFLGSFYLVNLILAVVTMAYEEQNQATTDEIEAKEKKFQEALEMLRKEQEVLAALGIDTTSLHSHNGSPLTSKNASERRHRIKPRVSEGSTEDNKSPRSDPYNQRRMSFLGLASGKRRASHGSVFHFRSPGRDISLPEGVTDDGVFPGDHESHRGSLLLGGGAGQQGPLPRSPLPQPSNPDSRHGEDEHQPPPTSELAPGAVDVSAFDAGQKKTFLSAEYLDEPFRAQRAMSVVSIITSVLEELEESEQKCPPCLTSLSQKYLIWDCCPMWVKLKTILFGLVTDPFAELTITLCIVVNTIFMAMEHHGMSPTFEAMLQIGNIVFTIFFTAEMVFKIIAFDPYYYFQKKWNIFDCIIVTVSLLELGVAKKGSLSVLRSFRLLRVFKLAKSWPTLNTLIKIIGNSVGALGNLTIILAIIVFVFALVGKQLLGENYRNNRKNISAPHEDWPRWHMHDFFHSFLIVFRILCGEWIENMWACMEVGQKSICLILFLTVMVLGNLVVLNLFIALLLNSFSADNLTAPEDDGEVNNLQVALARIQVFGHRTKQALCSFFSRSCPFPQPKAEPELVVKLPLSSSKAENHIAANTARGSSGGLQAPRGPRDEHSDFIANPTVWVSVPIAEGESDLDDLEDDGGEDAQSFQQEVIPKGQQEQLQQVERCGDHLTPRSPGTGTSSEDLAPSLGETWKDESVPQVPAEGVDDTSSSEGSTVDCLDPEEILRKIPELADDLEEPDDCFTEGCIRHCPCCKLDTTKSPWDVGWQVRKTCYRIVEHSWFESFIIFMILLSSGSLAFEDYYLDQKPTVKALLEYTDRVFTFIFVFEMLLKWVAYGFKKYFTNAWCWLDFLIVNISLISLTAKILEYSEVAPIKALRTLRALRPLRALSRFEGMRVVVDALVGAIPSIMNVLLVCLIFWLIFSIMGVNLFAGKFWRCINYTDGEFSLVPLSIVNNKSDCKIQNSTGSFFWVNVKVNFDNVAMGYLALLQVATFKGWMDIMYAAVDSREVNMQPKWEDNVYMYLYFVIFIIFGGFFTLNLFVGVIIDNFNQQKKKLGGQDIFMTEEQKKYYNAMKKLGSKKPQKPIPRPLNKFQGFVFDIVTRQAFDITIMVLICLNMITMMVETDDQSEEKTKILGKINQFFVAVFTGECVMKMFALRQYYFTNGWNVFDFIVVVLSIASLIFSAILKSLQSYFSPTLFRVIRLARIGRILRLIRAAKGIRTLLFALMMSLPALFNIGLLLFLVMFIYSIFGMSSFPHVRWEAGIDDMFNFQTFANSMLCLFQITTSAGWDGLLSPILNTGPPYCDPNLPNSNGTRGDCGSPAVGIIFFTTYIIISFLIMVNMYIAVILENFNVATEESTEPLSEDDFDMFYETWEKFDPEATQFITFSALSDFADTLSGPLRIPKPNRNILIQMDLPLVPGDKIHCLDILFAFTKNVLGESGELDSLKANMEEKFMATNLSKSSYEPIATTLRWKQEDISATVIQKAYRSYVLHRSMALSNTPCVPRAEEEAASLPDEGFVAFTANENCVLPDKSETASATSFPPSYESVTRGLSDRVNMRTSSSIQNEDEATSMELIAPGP
Assay type: cell-based
Description: Inhibition of Human Nav1.8 Stably Expressed in SH-SY-5Y Cells
A SH-SY-5Y neuroblastoma cell line stably expressing the human […] (hNav1.8) ion channel was constructed. This cell line has been used to develop a medium to high throughput assay for determining the ability of test compounds to inhibit membrane depolarisation mediated via the hNav1.8 channel.
SH-SY-5Y hNav1.8 are grown in adherent monolayer culture using 50:50 Ham's F-12/EMEM tissue culture medium supplemented with 15% (v/v) foetal bovine serum; 2 mM L-glutamine, 1% NEAA and 600 μg·ml^−1 Geneticin sulphate. Cells are removed from the tissue culture flask using trypsin/EDTA and re-plated into black walled, clear bottom 96-well assay plates at 50,000 cells·well^−1 24 hours prior to assay.
On the day of assay the cell assay plates are washed to remove cell culture medium using a sodium free assay buffer (145 mM tetramethyl ammonium chloride; 2 mM calcium chloride; 0.8 mM magnesium chloride hexahydrate; 10 mM HEPES; 10 mM glucose; 5 mM potassium chloride, pH 7.4). Fluorescent membrane potential dye solution (FLIPR™ membrane potential dye, Molecular Devices Corporation), containing 10 μM of a pyrethroid to prevent channel inactivation and 250 nM tetrodotoxin (TTX) to reduce interference from TTX-sensitive sodium channels present in the cell line. Test compound, initially dissolved in dimethyl sulfoxide but further diluted in sodium free buffer, is added to achieve the final test concentration range of 100 μM-0.05 μM.
Cell plates are incubated for 30 minutes at room temperature to allow equilibration of dye and test compound. Plates are then transferred to a fluorescence plate reader for fluorescence measurement using an excitation wavelength of 530 nm whilst measuring fluorescence emission at 565 nm. Baseline fluorescence levels are first determined before the addition of a sodium containing buffer (220 mM sodium chloride; 2 mM calcium chloride; 0.8 mM magnesium chloride hexahydrate; […]; 10 mM glucose; 5 mM potassium chloride. pH 7.4) to cause membrane depolarisation in those cells where channel block has not been effected (final sodium concentration=72.5 mM). Membrane depolarisation is registered by an increase in fluorescence emission at 565 nm.
The change in fluorescence seen in each test well upon the addition of sodium containing buffer is calculated relative to the baseline fluorescence for that well. This figure is then used for calculating the IC50 for each test compound.
`O=C(CN1CCc2cccc(O)c2C1)N(c1ccccc1)c1ccc(O)cc1` [Compound 176, 2-(8-Hydroxy-3,4-dihydro-1H-isoquinolin-2-yl)-N-(4-hydroxy-phenyl)-N-phenyl-acetamide] gave a pIC50 of 5.23.

Same assay, conditions: Table 2 (compound numbers of the list in the description); SH-SY-5Y hNav1.8 cells, inhibition of membrane depolarisation, FLIPR membrane potential dye, 250 nM TTX, test concentration range 100 μM-0.05 μM; read-out: IC50
In the case of `COc1cccc2c1CN(CC(=O)N1c3ccccc3Sc3ccc(C(C)=O)cc31)CC2` [Compound 148, 1-(2-Acetyl-phenothiazin-10-yl)-2-(8-methoxy-3,4-dihydro-1H-isoquinolin-2-yl)-ethanone], the pIC50 was 5.29.
`O=C(CN1CCc2cccc(O)c2C1)N(c1ccccc1)c1ccccc1` [Compound 149, 2-(8-Hydroxy-3,4-dihydro-1H-isoquinolin-2-yl)-N,N-diphenyl-acetamide] was tested, and the pIC50 was 5.04.
Work on `COc1cccc2c1CN(CC(=O)N(c1ccccc1)c1ccccc1)CC2` [Compound 150, 2-(8-Methoxy-3,4-dihydro-1H-isoquinolin-2-yl)-N,N-diphenyl-acetamide] yielded a pIC50 of 5.75.
For `COc1cc2c(cc1OC)CN(CC(=O)N1c3ccccc3S(=O)(=O)c3ccccc31)CC2` [Compound 151, 2-(6,7-Dimethoxy-3,4-dihydro-1H-isoquinolin-2-yl)-1-(5,5-dioxo-5H-5lambda*6*-phenothiazin-10-yl)-ethanone], the pIC50 was 5.13.
`COc1cc2c(cc1OC)CN(CC(=O)N1c3ccccc3Sc3ccccc31)CC2` [Compound 152, 2-(6,7-Dimethoxy-3,4-dihydro-1H-isoquinolin-2-yl)-1-phenothiazin-10-yl-ethanone] showed a pIC50 of 5.52.
In the case of `COc1cc2c(cc1OC)CN(CC(=O)N1c3ccccc3Sc3ccc(Cl)cc31)CC2` [Compound 153, 1-(2-Chloro-phenothiazin-10-yl)-2-(6,7-dimethoxy-3,4-dihydro-1H-isoquinolin-2-yl)-ethanone], the pIC50 was 5.27.
Work on `COc1cc2c(cc1OC)CN(CC(=O)N1c3ccccc3Sc3ccc(C(F)(F)F)cc31)CC2` [Compound 154, 2-(6,7-Dimethoxy-3,4-dihydro-1H-isoquinolin-2-yl)-1-(2-trifluoromethyl-phenothiazin-10-yl)-ethanone] yielded a pIC50 of 4.91.
Compound `COc1cc2c(cc1OC)CN(CC(=O)N1c3ccccc3Sc3ccc(C(C)=O)cc31)CC2` [Compound 155, 1-(2-Acetyl-phenothiazin-10-yl)-2-(6,7-dimethoxy-3,4-dihydro-1H-isoquinolin-2-yl)-ethanone] has a pIC50 of 5.20.
`COc1cc2c(cc1OC)CN(CC(=O)N1c3ccccc3Sc3ccc(SC)cc31)CC2` [Compound 156, 2-(6,7-Dimethoxy-3,4-dihydro-1H-isoquinolin-2-yl)-1-(2-methylsulfanyl-phenothiazin-10-yl)-ethanone] was tested, and the pIC50 was 5.63.
`COc1cc2c(cc1OC)CN(CC(=O)N1c3ccccc3[S+]([O-])c3ccccc31)CC2` [Compound 157, 2-(6,7-Dimethoxy-3,4-dihydro-1H-isoquinolin-2-yl)-1-(5-oxo-5H-5lambda*4*-phenothiazin-10-yl)-ethanone] showed a pIC50 of 4.52.
Compound `CSc1ccc2c(c1)N(C(=O)CN1CCc3cccc(O)c3C1)c1ccccc1S2` [Compound 158, 2-(8-Hydroxy-3,4-dihydro-1H-isoquinolin-2-yl)-1-(2-methylsulfanyl-phenothiazin-10-yl)-ethanone] has a pIC50 of 5.34.
`COc1cccc2c1CN(CC(=O)N1c3ccccc3Sc3ccc(SC)cc31)CC2` [Compound 159, 2-(8-Methoxy-3,4-dihydro-1H-isoquinolin-2-yl)-1-(2-methylsulfanyl-phenothiazin-10-yl)-ethanone] showed a pIC50 of 4.68.
In the case of `O=C(NCCN1CCc2cccc(O)c2C1)N1c2ccccc2Sc2ccccc21` [Compound 160, Phenothiazine-10-carboxylic acid [2-(8-hydroxy-3,4-dihydro-1H-isoquinolin-2-yl)-ethyl]-amide], the pIC50 was 6.02.
With `COc1cc2c(cc1OC)CN(CCNC(=O)N1c3ccccc3Sc3ccccc31)CC2` [Compound 161, Phenothiazine-10-carboxylic acid [2-(6,7-dimethoxy-3,4-dihydro-1H-isoquinolin-2-yl)-ethyl]-amide] the pIC50 was 5.95.
In the case of `COc1cccc2c1CN(CCNC(=O)N1c3ccccc3Sc3ccccc31)CC2` [Compound 162, Phenothiazine-10-carboxylic acid [2-(8-methoxy-3,4-dihydro-1H-isoquinolin-2-yl)-ethyl]-amide], the pIC50 was 6.01.
With `O=C(NCCN1CCc2cccc(O)c2C1)N1c2ccccc2Oc2ccccc21` [Compound 163, Phenoxazine-10-carboxylic acid [2-(8-hydroxy-3,4-dihydro-1H-isoquinolin-2-yl)-ethyl]-amide] the pIC50 was 6.11.
`COc1cccc2c1CN(CCNC(=O)N1c3ccccc3Oc3ccccc31)CC2` [Compound 164, Phenoxazine-10-carboxylic acid [2-(8-methoxy-3,4-dihydro-1H-isoquinolin-2-yl)-ethyl]-amide] was tested, and the pIC50 was 6.15.
`COc1cc2c(cc1OC)CN(CCNC(=O)N1c3ccccc3Oc3ccccc31)CC2` [Compound 165, Phenoxazine-10-carboxylic acid [2-(6,7-dimethoxy-3,4-dihydro-1H-isoquinolin-2-yl)-ethyl]-amide] showed a pIC50 of 5.99.
`COc1cccc2c1CN(CCC(=O)NCCC(c1ccc(F)cc1)c1ccc(F)cc1)CC2` [Compound 166, N-[3,3-Bis-(4-fluoro-phenyl)-propyl]-3-(8-methoxy-3,4-dihydro-1H-isoquinolin-2-yl)-propionamide] was tested, and the pIC50 was 6.46.
`O=C(CN1CCc2cccc(O)c2C1)NN(c1ccccc1)c1ccccc1` [Compound 167, (8-Hydroxy-3,4-dihydro-1H-isoquinolin-2-yl)-acetic acid N′,N′-diphenyl-hydrazide] showed a pIC50 of 5.35.
For `COc1cccc2c1CN(CC(=O)NN(c1ccccc1)c1ccccc1)CC2` [Compound 168, (8-Methoxy-3,4-dihydro-1H-isoquinolin-2-yl)-acetic acid N′,N′-diphenyl-hydrazide], the pIC50 was 5.70.
`COc1cc2c(cc1OC)CN(CC(=O)NN(c1ccccc1)c1ccccc1)CC2` [Compound 169, (6,7-Dimethoxy-3,4-dihydro-1H-isoquinolin-2-yl)-acetic acid N′,N′-diphenyl-hydrazide] gave a pIC50 of 4.52.
For `CCOC(=O)C1CN(C(=O)CN2CCc3cccc(O)c3C2)c2ccccc2O1` (stereo not shown) [Compound 170, 4-[2-(8-Hydroxy-3,4-dihydro-1H-isoquinolin-2-yl)-acetyl]-3,4-dihydro-2H-benzo[1,4]oxazine-2-carboxylic acid ethyl ester], the pIC50 was 5.77.
For `CCOC(=O)C1CN(C(=O)CN2CCc3cccc(OC)c3C2)c2ccccc2O1` (stereo not shown) [Compound 171, 4-[2-(8-Methoxy-3,4-dihydro-1H-isoquinolin-2-yl)-acetyl]-3,4-dihydro-2H-benzo[1,4]oxazine-2-carboxylic acid ethyl ester], the pIC50 was 5.76.
Work on `COc1cccc2c1CN(CC(=O)Nc1ccc(Oc3ccccc3)cc1)CC2` [Compound 172, 2-(8-Methoxy-3,4-dihydro-1H-isoquinolin-2-yl)-N-(4-phenoxy-phenyl)-acetamide] yielded a pIC50 of 5.20.
`O=C(CN1CCc2cccnc2C1)N1c2ccccc2Oc2ccccc21` [Compound 173, 2-(5,8-Dihydro-6H-[1,7]naphthyridin-7-yl)-1-phenoxazin-10-yl-ethanone] showed a pIC50 of 5.25.
`COc1cccc2c1CN(CCNC(=O)Nc1ccc(Oc3ccccc3)cc1)CC2` [Compound 174, 1-[2-(8-Methoxy-3,4-dihydro-1H-isoquinolin-2-yl)-ethyl]-3-(4-phenoxy-phenyl)-urea] gave a pIC50 of 6.26.
Compound `Nc1cccc2c1CN(CC(=O)N1c3ccccc3Oc3ccccc31)CC2` [Compound 175, 2-(8-Amino-3,4-dihydro-1H-isoquinolin-2-yl)-1-phenoxazin-10-yl-ethanone] has a pIC50 of 5.82.
For `O=C(CN1Cc2ccccc2C1)N1c2ccccc2Oc2ccccc21` [Compound 178, 2-(1,3-Dihydro-isoindol-2-yl)-1-phenoxazin-10-yl-ethanone], the pIC50 was 6.21.
Compound `COc1cccc2c1CN(CC(=O)NC1c3ccccc3Oc3ccccc31)CC2` [Compound 180, 2-(8-Methoxy-3,4-dihydro-1H-isoquinolin-2-yl)-N-(9H-xanthen-9-yl)-acetamide] has a pIC50 of 5.28.
Work on `O=C(CN1CCc2cccnc2C1)N(c1ccccc1)c1ccccc1` [Compound 181, 2-(5,8-Dihydro-6H-[1,7]naphthyridin-7-yl)-N,N-diphenyl-acetamide] yielded a pIC50 of 4.69.
For `COc1ccc(N(C(=O)CN2CCc3cccc(OC)c3C2)c2ccc(OC)cc2)cc1` [Compound 182, 2-(8-Methoxy-3,4-dihydro-1H-isoquinolin-2-yl)-N,N-bis-(4-methoxy-phenyl)-acetamide], the pIC50 was 5.67.
In the case of `COc1ccc(N(C(=O)CN2CCc3cccc(O)c3C2)c2ccc(OC)cc2)cc1` [Compound 183, 2-(8-Hydroxy-3,4-dihydro-1H-isoquinolin-2-yl)-N,N-bis-(4-methoxy-phenyl)-acetamide], the pIC50 was 5.65.
